Reference: ChEMBL document CHEMBL1201862, “PubChem BioAssay data set” (2004)
Active and inactive are the calls of the source.

Experiments:
Aminopeptidase N = target: T1, Aminopeptidase N (Plasmodium falciparum FcB1/Columbia, UniProt O96935); test: malaria alanyl aminopeptidase activity blockers – biochemical, fluorogenic H-Leu-NHMec substrate, 1536-well (AID 1445); design: species or system Plasmodium falciparum 3D7, 3D7
T1 sequence (O96935 whole entry): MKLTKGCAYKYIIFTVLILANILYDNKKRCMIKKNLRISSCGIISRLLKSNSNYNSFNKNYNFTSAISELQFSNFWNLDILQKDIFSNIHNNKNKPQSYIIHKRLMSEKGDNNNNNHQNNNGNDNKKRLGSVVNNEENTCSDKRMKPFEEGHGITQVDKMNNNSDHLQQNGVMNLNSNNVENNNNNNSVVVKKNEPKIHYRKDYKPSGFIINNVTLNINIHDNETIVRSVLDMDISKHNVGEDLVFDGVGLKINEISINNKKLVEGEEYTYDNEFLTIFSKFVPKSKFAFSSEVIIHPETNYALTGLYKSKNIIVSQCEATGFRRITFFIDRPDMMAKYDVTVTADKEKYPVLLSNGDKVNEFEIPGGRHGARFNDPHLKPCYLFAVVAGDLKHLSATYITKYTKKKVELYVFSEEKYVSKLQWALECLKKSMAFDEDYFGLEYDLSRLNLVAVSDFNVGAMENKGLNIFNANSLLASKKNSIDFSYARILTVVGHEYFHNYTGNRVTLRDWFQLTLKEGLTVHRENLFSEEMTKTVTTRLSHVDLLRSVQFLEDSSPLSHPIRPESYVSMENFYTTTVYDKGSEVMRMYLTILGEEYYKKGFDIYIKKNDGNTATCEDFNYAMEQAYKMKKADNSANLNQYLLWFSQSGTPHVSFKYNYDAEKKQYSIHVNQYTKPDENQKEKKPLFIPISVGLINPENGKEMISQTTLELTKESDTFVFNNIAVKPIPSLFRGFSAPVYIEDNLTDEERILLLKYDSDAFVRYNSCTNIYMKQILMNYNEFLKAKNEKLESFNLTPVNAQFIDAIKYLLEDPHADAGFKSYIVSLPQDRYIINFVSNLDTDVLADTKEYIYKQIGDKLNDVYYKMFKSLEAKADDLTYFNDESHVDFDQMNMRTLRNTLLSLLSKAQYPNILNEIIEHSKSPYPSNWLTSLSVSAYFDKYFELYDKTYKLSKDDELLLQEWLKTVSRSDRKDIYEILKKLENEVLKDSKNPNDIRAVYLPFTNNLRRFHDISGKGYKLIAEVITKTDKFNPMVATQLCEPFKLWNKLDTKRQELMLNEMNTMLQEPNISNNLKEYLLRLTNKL

Protein skinhead-1 = target: T2, Protein skinhead-1 (Caenorhabditis elegans, UniProt P34707); type: functional
T2 sequence (P34707 whole entry): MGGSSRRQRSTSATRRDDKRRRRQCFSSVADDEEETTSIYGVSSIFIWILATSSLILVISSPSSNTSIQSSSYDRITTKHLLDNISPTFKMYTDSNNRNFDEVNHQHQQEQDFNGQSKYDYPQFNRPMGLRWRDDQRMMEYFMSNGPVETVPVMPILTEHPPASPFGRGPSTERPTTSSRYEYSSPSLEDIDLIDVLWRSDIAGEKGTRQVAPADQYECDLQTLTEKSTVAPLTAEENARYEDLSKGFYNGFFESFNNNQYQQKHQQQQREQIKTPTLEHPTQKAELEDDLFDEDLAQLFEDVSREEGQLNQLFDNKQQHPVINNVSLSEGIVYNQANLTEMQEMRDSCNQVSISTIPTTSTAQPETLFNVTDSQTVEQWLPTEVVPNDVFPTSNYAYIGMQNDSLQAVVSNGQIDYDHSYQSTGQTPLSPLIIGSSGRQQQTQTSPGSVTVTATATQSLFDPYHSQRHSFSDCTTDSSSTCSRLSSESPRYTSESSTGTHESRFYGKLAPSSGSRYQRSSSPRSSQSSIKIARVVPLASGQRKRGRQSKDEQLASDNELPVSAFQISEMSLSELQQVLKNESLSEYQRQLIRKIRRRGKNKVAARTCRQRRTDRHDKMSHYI

[1] = toxicity toward HepG2 liver cells – cell-based, plate reader, cherry-pick, antagonist series, cytotoxicity control, dose response (AID 743416); type: functional
[2] = blockade of melanocortin 4 receptor signaling – cell-based, plate reader, cherry pick, counter-screen for LGR2 antagonist project, dose response (AID 743444); type: functional;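 note: transfected HEK 293 cells stimulated with alpha-MSH peptide; potency of inhibitors of the alpha-MSH evoked signal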
[3] = blockers of bursicon-stimulated LGR2 cAMP reporter – cell-based, HEK293, CRE-luciferase reporter, cherry pick, set 2, dose response (AID 743343); type: functional;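 note: transfected cells were stimulated with diluted bursicon conditioned medium after compound addition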
[4] = A549 cell cytotoxicity, dose response, cytotoxicity control, plate reader, cherry-pick, antagonist series (AID 743412); type: functional, cell-based
[5] = viability loss in HEK293 cells – cell-based, plate reader, cherry-picked samples, cytotoxicity control, dose response (AID 743446); type: functional
[6] = blockers of HIV-1 envelope-mediated cell-cell fusion – cherry-pick, dose response (AID 652057); type: functional, cell-based
[7] = HIV-1 AD8 envelope cell-cell fusion blockers – cherry-pick, dose response (AID 652062); type: functional, cell-based;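 note: luciferase signal from cell-cell fusion driven by HIV-1 clade B AD8 Env; potency is for inhibitors of fusion seen as a drop in luminescence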
[8] = blockers of HIV-1 ZM109 envelope-driven cell-cell fusion – HeLa effector, CEM target cells, luciferase, cherry-pick, dose response (AID 652058); type: functional, cell-based;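 note: luciferase signal from HIV-1 Env mediated cell-cell fusion of effector and target cells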
cells [9] = type: functional, cell-based
cells [10] = type: functional, cell-based; remark: listed apart in the source
[11] = target: T3, Alkaline phosphatase, tissue-nonspecific isozyme (Homo sapiens, UniProt P05186); test: potency against alkaline phosphatase TNAP – biochemical, luminescent, dose response, SAR follow-up (AID 1056)
T3 sequence (P05186 whole entry): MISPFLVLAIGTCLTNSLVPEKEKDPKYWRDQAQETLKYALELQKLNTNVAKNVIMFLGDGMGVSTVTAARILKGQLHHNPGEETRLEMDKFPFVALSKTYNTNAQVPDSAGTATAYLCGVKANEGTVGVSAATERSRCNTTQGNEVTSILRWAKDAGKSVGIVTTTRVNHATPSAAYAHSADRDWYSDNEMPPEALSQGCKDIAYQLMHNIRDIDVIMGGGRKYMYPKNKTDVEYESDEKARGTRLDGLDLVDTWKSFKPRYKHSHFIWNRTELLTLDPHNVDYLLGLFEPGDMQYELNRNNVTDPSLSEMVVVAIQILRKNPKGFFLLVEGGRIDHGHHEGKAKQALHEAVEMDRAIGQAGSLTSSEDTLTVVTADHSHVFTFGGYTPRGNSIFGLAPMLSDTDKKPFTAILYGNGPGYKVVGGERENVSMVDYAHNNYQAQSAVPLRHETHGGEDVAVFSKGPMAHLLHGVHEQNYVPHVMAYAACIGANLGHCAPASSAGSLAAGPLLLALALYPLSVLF

[12] = target: Induced myeloid leukemia cell differentiation protein Mcl-1 (Homo sapiens, UniProt Q07820); type: functional
Chain of Induced myeloid leukemia cell differentiation protein Mcl-1 (Q07820 whole entry): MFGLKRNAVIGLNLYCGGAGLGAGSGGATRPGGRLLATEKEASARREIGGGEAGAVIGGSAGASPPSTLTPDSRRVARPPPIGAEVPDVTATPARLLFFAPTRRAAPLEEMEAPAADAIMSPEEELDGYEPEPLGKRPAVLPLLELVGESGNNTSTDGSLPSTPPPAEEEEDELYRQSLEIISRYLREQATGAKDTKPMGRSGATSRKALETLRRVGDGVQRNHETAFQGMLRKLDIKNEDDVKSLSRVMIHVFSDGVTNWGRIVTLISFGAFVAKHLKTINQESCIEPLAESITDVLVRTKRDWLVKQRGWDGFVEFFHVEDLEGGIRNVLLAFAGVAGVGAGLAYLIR

[13] = P. falciparum Dd2 growth inhibitors, dose response, SYBR Green, cherry-picked samples (AID 1159567); type: functional, cell-based
[14] = target: T4, Polyadenylate-binding protein 1 (Homo sapiens, UniProt P11940); test: MLLE binding blockers, Cy5 peptide tracer – biochemical, fluorescence polarization, Cy5-PAM2 peptide, secondary, miRNA deadenylation inhibitor project, dose response (AID 602260); type: functional; details: read-out: IC50_Mean
T4 sequence (P11940 whole entry, the tested form may be a part): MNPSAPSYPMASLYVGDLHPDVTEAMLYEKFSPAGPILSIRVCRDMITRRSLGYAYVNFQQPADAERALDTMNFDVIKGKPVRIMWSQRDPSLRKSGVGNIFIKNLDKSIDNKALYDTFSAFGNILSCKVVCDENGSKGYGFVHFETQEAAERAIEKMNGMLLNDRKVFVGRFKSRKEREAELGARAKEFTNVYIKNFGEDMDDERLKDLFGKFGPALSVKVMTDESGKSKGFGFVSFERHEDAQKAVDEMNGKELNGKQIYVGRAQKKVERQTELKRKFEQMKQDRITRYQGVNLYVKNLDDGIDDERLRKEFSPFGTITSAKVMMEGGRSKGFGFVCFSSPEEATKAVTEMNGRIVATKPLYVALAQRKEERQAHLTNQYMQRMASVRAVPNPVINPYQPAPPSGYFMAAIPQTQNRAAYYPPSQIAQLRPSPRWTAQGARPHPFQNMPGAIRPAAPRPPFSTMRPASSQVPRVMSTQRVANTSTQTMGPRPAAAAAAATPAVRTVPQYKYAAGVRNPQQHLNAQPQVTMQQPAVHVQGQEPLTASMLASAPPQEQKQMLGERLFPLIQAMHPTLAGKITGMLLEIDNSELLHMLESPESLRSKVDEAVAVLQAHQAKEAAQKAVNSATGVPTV

[15] = target: T4, Polyadenylate-binding protein 1; test: MLLE domain peptide-binding blockers, IC50 – biochemical, fluorescence polarization, FITC-PAM2 peptide, dose response (AID 602259); type: functional; details: read-out: IC50_Mean
[16] = target: Glyceraldehyde-3-phosphate dehydrogenase (Homo sapiens, UniProt P04406)
Chain of Glyceraldehyde-3-phosphate dehydrogenase (P04406 whole entry): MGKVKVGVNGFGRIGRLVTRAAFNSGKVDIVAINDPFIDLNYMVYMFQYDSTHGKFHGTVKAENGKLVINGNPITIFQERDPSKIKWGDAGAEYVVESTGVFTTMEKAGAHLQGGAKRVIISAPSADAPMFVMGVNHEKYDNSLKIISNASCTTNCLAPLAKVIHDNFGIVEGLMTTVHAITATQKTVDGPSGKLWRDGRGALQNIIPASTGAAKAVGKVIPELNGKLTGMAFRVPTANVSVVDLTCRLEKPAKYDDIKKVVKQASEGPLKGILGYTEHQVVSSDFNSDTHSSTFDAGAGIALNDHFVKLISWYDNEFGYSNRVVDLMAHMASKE

[17] = Luminescence Cell-Based Dose Confirmation HTS to Identify Inhibitors of Platelet Dense Granule Release. [Related pubchem assays: 1663 (Primary HTS), 1678 (Summary of Project)]; type: functional
[18] = target: Luciferin 4-monooxygenase (Photinus pyralis, UniProt P08659); test: inhibition of purified Photinus pyralis luciferase – biochemical, luminescence, dose response (AID 1891)
Chain of Luciferin 4-monooxygenase (P08659 whole entry): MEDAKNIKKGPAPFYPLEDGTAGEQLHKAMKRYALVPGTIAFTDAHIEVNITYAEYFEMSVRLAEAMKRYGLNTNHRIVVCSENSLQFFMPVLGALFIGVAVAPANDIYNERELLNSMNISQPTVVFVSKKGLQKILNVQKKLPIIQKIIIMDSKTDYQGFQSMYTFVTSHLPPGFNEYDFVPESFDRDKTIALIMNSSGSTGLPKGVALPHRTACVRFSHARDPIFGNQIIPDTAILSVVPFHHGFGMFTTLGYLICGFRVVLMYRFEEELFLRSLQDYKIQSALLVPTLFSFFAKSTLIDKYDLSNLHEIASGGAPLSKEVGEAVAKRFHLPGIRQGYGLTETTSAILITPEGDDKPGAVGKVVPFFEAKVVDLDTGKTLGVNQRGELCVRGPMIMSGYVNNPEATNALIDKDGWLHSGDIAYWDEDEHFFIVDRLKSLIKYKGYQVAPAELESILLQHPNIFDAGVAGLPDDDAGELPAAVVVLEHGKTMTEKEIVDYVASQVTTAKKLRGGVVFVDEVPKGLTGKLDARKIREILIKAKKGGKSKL

H4 = test: Luminescence Cell-Based Dose Response HTS to Identify Activators of 5'UTR Stem-Loop Driven Prion Protein mRNA Translation in H4 Neuroglioblastoma Cells. [Related pubchem assays: 1829 (Project Summary), 1814 (Primary HTS)]; type: functional; details: Homo sapiens
Large T antigen = Large T antigen (Simian virus 40, UniProt P03070); type: functional, Betapolyomavirus macacae;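 note: Confirmatory-stage PubChem screen for compounds that inhibit SV40 T antigen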
Chain of Large T antigen (P03070 whole entry): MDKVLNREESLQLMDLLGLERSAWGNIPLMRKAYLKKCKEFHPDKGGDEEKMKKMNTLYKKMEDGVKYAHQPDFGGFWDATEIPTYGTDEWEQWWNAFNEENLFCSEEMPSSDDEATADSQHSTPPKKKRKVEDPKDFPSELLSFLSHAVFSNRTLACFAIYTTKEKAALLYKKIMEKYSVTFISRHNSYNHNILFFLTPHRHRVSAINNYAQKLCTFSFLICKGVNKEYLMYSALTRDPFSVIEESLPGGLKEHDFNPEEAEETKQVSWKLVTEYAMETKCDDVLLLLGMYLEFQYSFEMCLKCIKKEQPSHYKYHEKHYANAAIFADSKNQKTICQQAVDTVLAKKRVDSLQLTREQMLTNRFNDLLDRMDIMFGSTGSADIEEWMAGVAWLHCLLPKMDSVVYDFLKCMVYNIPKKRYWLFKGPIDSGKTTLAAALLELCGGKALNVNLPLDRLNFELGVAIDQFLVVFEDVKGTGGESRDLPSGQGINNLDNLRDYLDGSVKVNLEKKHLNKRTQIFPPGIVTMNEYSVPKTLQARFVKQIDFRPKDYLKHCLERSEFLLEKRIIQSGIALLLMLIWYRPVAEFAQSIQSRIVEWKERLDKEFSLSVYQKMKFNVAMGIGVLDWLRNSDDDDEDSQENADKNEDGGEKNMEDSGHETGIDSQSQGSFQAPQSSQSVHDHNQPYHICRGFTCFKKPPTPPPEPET

[19] = Luminescence Cell-Based Dose Response HTS to Identify Activators of Luciferase Translation or Activity in H4 […] Cells. [Related pubchem assays: 1829 (Project Summary), 1814 (Primary HTS)]; type: functional

Cc1ccc(-c2c(C)sc3ncn(CC(=O)N4CCOCC4)c(=O)c23)cc1C
IC50 (Aminopeptidase N): 12.4 µM (active)

Cc1ccc(-n2nnnc2SCC(=O)NC(C(=O)O)(c2ccccc2)c2ccccc2)cc1C
IC50 (Aminopeptidase N): 29.2 µM (active)

COc1cccc(/C=C2\CC(C)Cc3c2nc2ccccc2c3C(=O)O)c1OC (stereo unspecified)
IC50 (Protein skinhead-1): > 100 µM (inactive)

Cc1ccc(C)c(CSc2ncccc2C(=O)O)c1
IC50 (Aminopeptidase N): 77.7 µM (active)

O=C(Nc1cc2ccccc2oc1=O)c1ccccc1
AC50 [1]: 41 µM (active) | AC50 [2]: 3.08 µM (active) | AC50 [3]: 1.69 µM (active) | AC50 [4]: 31.5 µM (active) | AC50 [5]: 37.2 µM (active)

Cc1cc(N2C(=O)c3ccc(C(=O)NCc4ccccc4)cc3C2=O)no1
IC50 (Aminopeptidase N): 18.6 µM (active)

O=C(C[C@@H]1C=C[C@H](NC(=O)c2ccccc2)[C@H](CO)O1)NCc1ccc(Oc2ccccc2)cc1
AC50 [6]: 24.7 µM (active) | AC50 [7]: 35 µM (active) | AC50 [8]: 24.1 µM (active)

CSc1nc(C)cc(C)c1C#N
EC50 (cells [9]): > 350 µM (not active) | EC50 (cells [10]): > 350 µM (not active)

CN(C)CCCN(C(=O)CCS(=O)(=O)c1ccccc1)c1nc2cc3c(cc2s1)OCO3
EC50 (cells [9]): > 350 µM (not active) | EC50 (cells [10]): > 350 µM (not active)

Cn1ncc(Br)c1NC(=O)CSc1ccc(Cl)cc1
EC50 (cells [9]): 181 µM (active) | EC50 (cells [10]): > 350 µM (not active)

O=C(Cn1ccnc1)c1ccc(O)c(O)c1
IC50 [11]: > 100 µM (inactive)

O=C(Nc1ccc(Cl)cc1)Nc1nnc(/C=C/c2ccccc2)s1
IC50 [12]: 5.89 µM (active)

Clc1cccc(/C=N/Nc2nc(Cl)nc3ccccc23)c1
IC50 [12]: 19 µM (not active)

CN(C)CC(=O)N1[C@H](CO)[C@H](c2ccc(-c3cccc(C(=O)N(C)C)c3)cc2)[C@@H]1C#N
AC50 [13]: 7.56 µM (active)

CS(=O)(=O)c1sc2nc(-c3cccs3)cc(-c3ccccc3)c2c1N
IC50 (Aminopeptidase N): 81.1 µM (active)

Cc1onc(-c2ccccc2)c1NC(=O)N(Cc1ccccc1)C(C)C
EC50 (cells [9]): > 350 µM (not active) | EC50 (cells [10]): > 350 µM (not active)

CCOC(=O)c1[nH]cnc1C(=O)Nc1ccncc1
IC50 (Aminopeptidase N): 26 µM (active)

COc1ccc(CNC(=O)N(C)C[C@H]2OCc3ccccc3-c3c(n(C)c4ccccc34)C(=O)N([C@@H](C)CO)C[C@@H]2C)cc1
AC50 [6]: < 0.26 µM (active) | AC50 [7]: < 0.26 µM (active) | AC50 [8]: < 0.26 µM (active)

COc1ccc(S(=O)(=O)Nc2ccc3c(c2)CC(=O)N([C@@H](C)CO)C[C@H](C)[C@H](CN(C)S(=O)(=O)c2cccs2)O3)cc1
AC50 [6]: 7.42 µM (active) | AC50 [7]: 25.1 µM (active) | AC50 [8]: 1.15 µM (active)

COc1cccc(-c2ncn(CCc3ccccc3OC)c2CC(C)C)c1
AC50 [1]: 22.3 µM (active) | AC50 [2]: 22.2 µM (active) | AC50 [3]: 23.6 µM (active) | AC50 [4]: 23.6 µM (active) | AC50 [5]: > 52 µM (inactive)

O=C(O)CCCCCN1C(=O)C(O)=C(C(=O)/C=C/c2ccccc2)C1c1ccccc1[N+](=O)[O-] (stereo unspecified)
IC50 [14]: > 66 µM (inactive) | IC50 [15]: > 66 µM (inactive)

Cc1nc2ccccc2nc1OCc1ccccc1
IC50 (Protein skinhead-1): 18.2 µM (active)

Clc1ccc(-n2nnc(-c3nccs3)n2)cc1Cl
IC50 (Protein skinhead-1): > 100 µM (inactive)

CCOC(=O)c1sc(=S)n(-c2cccc(OC)c2)c1N
IC50 [14]: > 66 µM (inactive) | IC50 [15]: > 66 µM (inactive)

CCOC(=O)c1cnc2ccc(Cl)cc2c1NCCN(C)C
IC50 [14]: > 66 µM (inactive) | IC50 [15]: > 66 µM (inactive)

CN(Cc1ccccc1)S(=O)(=O)c1ccc(C(=O)O)o1
IC50 [16]: > 100 µM (not active)

CC(=O)Nc1ccc(NC(=O)CCC(=O)OCC(=O)c2ccc(F)cc2)cc1
EC50 (cells [9]): > 350 µM (not active) | EC50 (cells [10]): > 350 µM (not active)

COc1ccccc1CNC(=O)C1CCN(C(=O)N(C)C)CC1
IC50 (Protein skinhead-1): > 100 µM (inactive)

COc1cc(/C=C/C(=O)Nc2cc(S(=O)(=O)N3CCOCC3)ccc2N2CCCC2)cc(OC)c1OC
IC50 [14]: > 66 µM (inactive) | IC50 [15]: > 66 µM (inactive)

Cc1ccc(S(=O)(=O)N2CCN(c3ccccn3)CC2)cc1
EC50 (cells [9]): > 350 µM (not active) | EC50 (cells [10]): > 350 µM (not active)

COc1cccc(N2CCN(C3=C(Cl)C(=O)N(c4ccc(C(F)(F)F)cc4)C3=O)CC2)c1
IC50 [16]: > 50 µM (inconclusive)

COc1ccc(Nc2nc(C(=O)NCCCN3CCOCC3)cs2)cc1
IC50 (Protein skinhead-1): > 100 µM (inactive)

C=CCN1C(=O)c2ccccc2Sc2ccc(C(=O)N3CCN(C)CC3)cc21
EC50 (cells [9]): > 350 µM (not active) | EC50 (cells [10]): > 350 µM (not active)

O=C(/C=C/Nc1ccc(F)cc1F)c1cccs1
EC50 [17]: 4.23 µM (active) | EC50 [18]: 1.09 µM (active) | IC50 (Protein skinhead-1): 73.4 µM (inactive)

Cn1c(N)c(C(=O)COC(=O)c2cc(-c3ccco3)nc3ccccc23)c(=O)n(Cc2ccccc2)c1=O
IC50 [12]: 2.95 µM (active)

Cc1ccc2c(c1)NC(=O)c1cccnc1N2
EC50 (H4): > 120 µM (not active) | IC50 (Large T antigen): 10.2 µM (active) | EC50 [19]: 61.7 µM (active) | IC50 [12]: 10.5 µM (not active)
